Reference: ChEMBL document CHEMBL4732064, “Structure-activity relationship studies of phenothiazine derivatives as a new class of ferroptosis inhibitors together with the therapeutic effect in an ischemic stroke model” (Eur J Med Chem, 2021)
Activity calls are given as the source filed them. The rule behind the calls is not given here.

Columns and labels:
Assay type in all cases: functional, cell-based
[1] = tested on: HT-1080; assay: Inhibition of erastin-induced ferroptosis in human HT-1080 cells assessed as cell viability incubated for 48 hrs by MTT assay; conditions: HT-1080, 48 h
[2] = tested on: HT-29; assay: Protection against TNFalpha/Smac-mimetic/Z-VAD-FMK-induced necroptosis in human HT-29 cells assessed as cell viability at 10 uM
[3] = tested on: THP-1; assay: Protection against nigericin-induced pyroptosis in human THP-1 cells assessed as cell viability at 10 uM
[4] = tested on: HT-1080; assay: Inhibition of rotenone-induced oxidative cell death in human HT-1080 cells at 10 uM incubated for 24 hrs
[5] = tested on: HT-1080; assay: Inhibition of H2O2-induced oxidative cell death in human HT-1080 cells at 10 uM incubated for 24 hrs

EC50 [1]	Structure (SMILES)	other results
2760 nM	CC1CCN(CC(=O)N2c3ccccc3Sc3ccccc32)CC1	–
67 nM	CC(c1ccc2c(c1)Nc1ccccc1S2)S(=O)(=O)N1CCOCC1 (configuration not stated)	–
17 nM	CCOc1ccc(C(C)c2ccc3c(c2)Nc2ccccc2S3)cc1 (configuration not stated)	–
> 10000 nM	CN1c2ccccc2Sc2ccccc21	–
24 nM	Cc1cc(Cl)cc(C(C)c2ccc3c(c2)Nc2ccccc2S3)c1 (configuration not stated)	–
20 nM	CCc1ccc(C(C)c2ccc3c(c2)Nc2ccccc2S3)cc1 (configuration not stated)	–
195 nM	CS(=O)(=O)c1ccc2c(c1)Nc1ccccc1S2	–
64 nM	CCCCc1ccc(C(C)c2ccc3c(c2)Nc2ccccc2S3)cc1 (configuration not stated)	–
5 nM	Cc1cccc(C(C)c2ccc3c(c2)Nc2ccccc2S3)c1 (configuration not stated)	–
439 nM	CC(OC(=O)CCCN1C(=O)c2ccccc2C1=O)C(=O)N1c2ccccc2Sc2ccccc21 (configuration not stated)	–
17 nM	CC(c1ccc(C(F)(F)F)c(Cl)c1)c1ccc2c(c1)Nc1ccccc1S2 (configuration not stated)	–
16 nM	CC(c1ccc(Cl)cc1)c1ccc2c(c1)Nc1ccccc1S2 (configuration not stated)	–
6 nM	CC(C)c1ccc(C(C)c2ccc3c(c2)Nc2ccccc2S3)cc1 (configuration not stated)	–
145 nM	COc1ccc(OCC(=O)N2c3ccccc3Sc3ccccc32)cc1	–
12 nM	CC(C)c1cccc(C(C)c2ccc3c(c2)Nc2ccccc2S3)c1 (configuration not stated)	–
17 nM	CC(c1cccc(C(=O)OC(C)(C)C)c1)c1ccc2c(c1)Nc1ccccc1S2 (configuration not stated)	–
52 nM	CC(c1cccc(NC(=O)OC(C)(C)C)c1)c1ccc2c(c1)Nc1ccccc1S2 (configuration not stated)	–
60 nM	CC(c1cc(F)cc(OCc2ccccc2)c1)c1ccc2c(c1)Nc1ccccc1S2 (configuration not stated)	–
28 nM	C/C(=N\NS(=O)(=O)c1ccc(C)cc1)c1ccc2c(c1)Nc1ccccc1S2	–
5 nM	C/C(=N\NC(=O)c1ccccc1C)c1ccc2c(c1)Nc1ccccc1S2	–
38 nM	CC(=O)c1ccc2c(c1)Nc1ccccc1S2	–
> 10000 nM	CCCN1c2ccccc2Sc2ccccc21	–
> 10000 nM	O=C(CCN1c2ccccc2Sc2ccccc21)N1CCN(CCO)CC1	–
17 nM	CC(c1cc(Cl)cc(Cl)c1)c1ccc2c(c1)Nc1ccccc1S2 (configuration not stated)	–
17 nM	CC(C)Oc1ccc(C(C)c2ccc3c(c2)Nc2ccccc2S3)cc1 (configuration not stated)	–

EC50 [1]	Structure (SMILES)	other results
5 nM	CC(c1cccc(Cl)c1)c1ccc2c(c1)Nc1ccccc1S2 (configuration not stated)	–
6 nM	CC(c1ccc(C#N)cc1)c1ccc2c(c1)Nc1ccccc1S2 (configuration not stated)	–
22 nM	COc1cc(C(C)c2ccc3c(c2)Nc2ccccc2S3)ccc1C (configuration not stated)	–
21 nM	COC(=O)c1ccc(C(C)c2ccc3c(c2)Nc2ccccc2S3)cc1Cl (configuration not stated)	–
15 nM	CC(C)Oc1cccc(C(C)c2ccc3c(c2)Nc2ccccc2S3)c1 (configuration not stated)	–
13 nM	COc1cc(OC)cc(C(C)c2ccc3c(c2)Nc2ccccc2S3)c1 (configuration not stated)	–
6 nM	CC(c1cccc(F)c1)c1ccc2c(c1)Nc1ccccc1S2 (configuration not stated)	–
63 nM	OCc1ccc2c(c1)Nc1ccccc1S2	–
32 nM	CCN1CCN(S(=O)(=O)C(C)c2ccc3c(c2)Nc2ccccc2S3)CC1 (configuration not stated)	–
5240 nM	Cc1ccc(C)c(NC(=O)CN(C)C(=O)CCN2c3ccccc3Sc3ccccc32)c1	–
9 nM	CC(C)Cc1ccc(C(C)c2ccc3c(c2)Nc2ccccc2S3)cc1 (configuration not stated)	–
65 nM	C/C(=N\NC(=O)c1ccccn1)c1ccc2c(c1)Nc1ccccc1S2	–
4470 nM	O=C(c1ccncc1)N1c2ccccc2Sc2ccccc21	–
19 nM	COc1ccc(C(C)c2ccc3c(c2)Nc2ccccc2S3)cc1C (configuration not stated)	–
13 nM	CC(c1ccc(N2CCOCC2)cc1)c1ccc2c(c1)Nc1ccccc1S2 (configuration not stated)	–
4 nM	CC(c1ccccc1)c1ccc2c(c1)Nc1ccccc1S2 (configuration not stated)	–
> 10000 nM	COc1ccccc1C(=O)N1c2ccccc2Sc2ccccc21	–
4040 nM	CC(NC(=O)CCN1c2ccccc2Sc2ccccc21)C1CC1 (configuration not stated)	–
13 nM	CC(OC(=O)c1ccccc1)c1ccc2c(c1)Nc1ccccc1S2 (configuration not stated)	–
25 nM	CC(c1cccc(OCc2ccccc2)c1)c1ccc2c(c1)Nc1ccccc1S2 (configuration not stated)	–
15 nM	CC(c1cccc(C#N)c1)c1ccc2c(c1)Nc1ccccc1S2 (configuration not stated)	–
25 nM	COc1cc(C(C)c2ccc3c(c2)Nc2ccccc2S3)ccc1F (configuration not stated)	–
64 nM	CSc1ccc2c(c1)Nc1ccccc1S2	–
–	CN1C(=O)C(Cc2c[nH]c3ccccc23)NC1=S (configuration not stated)	Activity [2]: Active
4300 nM	CC(=O)c1cccc(NC(=O)CCN2c3ccccc3Sc3ccccc32)c1	–

EC50 [1]	Structure (SMILES)	other results
80 nM	CC(c1ccc2c(c1)Nc1ccccc1S2)S(=O)(=O)N1CCN(c2ccc(F)cc2)CC1 (configuration not stated)	–
–	CC(C)(O)c1coc(S(=O)(=O)NC(=O)Nc2c3c(cc4c2CCC4)CCC3)c1	Activity [3]: Active
21 nM	Cc1cc(C)cc(C(C)c2ccc3c(c2)Nc2ccccc2S3)c1 (configuration not stated)	–
35 nM	CC(c1ccc2c(c1)Nc1ccccc1S2)c1ccc(F)c(OCc2ccccc2)c1 (configuration not stated)	–
> 10000 nM	CC(OC(=O)CCN1c2ccccc2Sc2ccccc21)c1ccc(F)cc1 (configuration not stated)	–
264 nM	CC(CN1c2ccccc2Sc2ccccc21)N(C)C (configuration not stated) [PROMETHAZINE]	–
18 nM	CCOc1ccccc1C(=O)N/N=C(\C)c1ccc2c(c1)Nc1ccccc1S2	–
1130 nM	O=C(CN1CCCC1)N1c2ccccc2Sc2ccccc21	–
71 nM	Cc1cc(C(C)c2ccc3c(c2)Nc2ccccc2S3)ccc1OCc1ccccc1 (configuration not stated)	–
18 nM	CCc1cccc(C(C)c2ccc3c(c2)Nc2ccccc2S3)c1 (configuration not stated)	–
80 nM	CC(c1ccc2c(c1)Nc1ccccc1S2)S(=O)(=O)N1CCN(c2ccc(F)cc2F)CC1 (configuration not stated)	–
1150 nM	CC(=O)N1c2ccccc2Sc2ccccc21	–
22 nM	COc1cc(C(C)c2ccc3c(c2)Nc2ccccc2S3)ccc1Cl (configuration not stated)	–
17 nM	c1ccc(Cc2ccc3c(c2)Nc2ccccc2S3)cc1	–
30 nM	CCOC(=O)c1cc(F)cc(C(C)c2ccc3c(c2)Nc2ccccc2S3)c1 (configuration not stated)	–
> 10000 nM	COCCNC(=O)N1c2ccccc2Sc2ccccc21	–
73 nM	CC(c1ccc(C(C)(C)C)cc1)c1ccc2c(c1)Nc1ccccc1S2 (configuration not stated)	–
19 nM	CC(c1ccc(Cl)c(F)c1)c1ccc2c(c1)Nc1ccccc1S2 (configuration not stated)	–
209 nM	N#Cc1ccc2c(c1)Nc1ccccc1S2	–
14 nM	CCOc1cccc(C(C)c2ccc3c(c2)Nc2ccccc2S3)c1 (configuration not stated)	–
5 nM	CC(c1cccc(O)c1)c1ccc2c(c1)Nc1ccccc1S2 (configuration not stated)	–
47 nM	FC(F)(F)c1ccc2c(c1)Nc1ccccc1S2	–
30 nM	CCc1ccc2c(c1)Nc1ccccc1S2	–
5 nM	CC(c1ccc(F)c(Cl)c1)c1ccc2c(c1)Nc1ccccc1S2 (configuration not stated)	–
25 nM	CC(C)N1CCN(S(=O)(=O)C(C)c2ccc3c(c2)Nc2ccccc2S3)CC1 (configuration not stated)	–

EC50 [1]	Structure (SMILES)	other results
57 nM	COc1cccc(N2CCN(S(=O)(=O)C(C)c3ccc4c(c3)Nc3ccccc3S4)CC2)c1 (configuration not stated)	–
> 10000 nM	Cc1cnc(SCC(=O)N2c3ccccc3Sc3ccccc32)nc1	–
9 nM	CC(c1cccc(N2CCN(C)CC2)c1)c1ccc2c(c1)Nc1ccccc1S2 (configuration not stated)	–
> 10000 nM	CCCCC(CC)CN1c2ccccc2Sc2ccccc21 (configuration not stated)	–
7 nM	COc1ccc(C(C)c2ccc3c(c2)Nc2ccccc2S3)cc1OC (configuration not stated)	–
14 nM	CC(c1cccc(N2CCOCC2)c1)c1ccc2c(c1)Nc1ccccc1S2 (configuration not stated)	–
6 nM	CC(c1ccc(F)cc1)c1ccc2c(c1)Nc1ccccc1S2 (configuration not stated)	–
142 nM	O=Cc1ccc2c(c1)Nc1ccccc1S2	–
35 nM	CC(c1ccc2c(c1)Nc1ccccc1S2)S(=O)(=O)N1CCN(S(C)(=O)=O)CC1 (configuration not stated)	–
6 nM	CC(c1ccc(C(F)(F)F)cc1)c1ccc2c(c1)Nc1ccccc1S2 (configuration not stated)	–
> 10000 nM	Cc1ccc(SCC(=O)N2c3ccccc3Sc3ccccc32)cc1	–
62 nM	CCCOc1ccc(C(C)c2ccc3c(c2)Nc2ccccc2S3)cc1 (configuration not stated)	–
4420 nM	CCN(CC)CC(O)CN1c2ccccc2Sc2ccccc21 (configuration not stated)	–
> 10000 nM	CC(=O)c1ccccc1NC(=O)COC(=O)CCN1c2ccccc2Sc2ccccc21	–
71 nM	C/C(=N\NC(=O)c1cccnc1)c1ccc2c(c1)Nc1ccccc1S2	–
1750 nM	COc1ccc2c(c1)Nc1ccccc1S2	–
78 nM	CC(c1ccc2c(c1)Nc1ccccc1S2)S(=O)(=O)N1CCSCC1 (configuration not stated)	–
88 nM	CCOC(=O)c1ccc(NC2CCCCC2)c(N)c1	Activity [2]: inactive; inhibition [4]: inactive; Activity [5]: inactive
14 nM	CC(c1ccc(OCc2ccccc2)cc1)c1ccc2c(c1)Nc1ccccc1S2 (configuration not stated)	–
16 nM	CC(c1ccc(Cl)c(Cl)c1)c1ccc2c(c1)Nc1ccccc1S2 (configuration not stated)	–
39 nM	CC(c1ccc(NC(=O)OC(C)(C)C)cc1)c1ccc2c(c1)Nc1ccccc1S2 (configuration not stated)	–
34 nM	CC(c1ccc2c(c1)Nc1ccccc1S2)S(=O)(=O)N1CCN(C)CC1 (configuration not stated)	–
17 nM	CC(=NNC(=O)c1ccco1)c1ccc2c(c1)Nc1ccccc1S2	–

Structure (SMILES)	EC50 [1]	other results
c1ccc2c(c1)Nc1ccccc1S2 [PHENOTHIAZINE]	49 nM	–
